Patent US20230241159A1, “Peptide Having Mesenchymal Stem Cell Mobilizing Activity” (StemRIM Inc., priority 2020, published 2023)

Tests used:
[1] = system: mesenchymal stem cells; experiment: Solid-phase culture of peripheral blood after administration of HMGB1 peptide 1-44 (earlier experiments of the inventors); type: in vivo
From the text: In addition, the colonies obtained as a result of culturing, on a solid phase, peripheral blood after administration of a peptide consisting of amino acid residues 1-44 of the human HMGB1 protein (hereinafter, HMGB1 peptide 1-44), which has an activity of mobilizing mesenchymal stem cells into peripheral blood, have been confirmed to have adherability to solid phase and self-renewal ability, and to be PDGFRα positive. They have also been confirmed to have a gene expression profile characteristic to mesenchymal stem cells, based on the results of clustering the transcriptome analysis data and performing gene ontology analysis.

[2] = system: inflammatory bowel disease (IBD) model mice; experiment: Dextran sulfate sodium (DSS)-induced inflammatory bowel disease (IBD) model mice; type: in vivo, BALB/c mice
Procedure: Dextran sodium sulfate (DSS) (molecular weight 36,000 to 50,000, manufactured by MP Biomedicals, Product No. 160110) was dissolved in purified water to prepare a 2.5% (w/v) DSS aqueous solution. In addition, the peptide 1r10 (TFA salt) consisting of the amino acid sequence of SEQ ID NO: 1 was chemically synthesized by the solid phase method and used as the test substance.
BALB/c mice (9 weeks old, male) were allowed to drink the 2.5% DSS aqueous solution freely for 7 days to induce colitis. After that, the drinking was changed from DSS to tap water, and the large intestine was collected 3 days later (10 days after the start of drinking the DSS aqueous solution).
The IBD model mice prepared as described above were divided into the peptide 1r10 administration group (n=8) and the control group (n=8). Peptide administration was carried out by injecting into the tail vein, the peptide 1r10 solution adjusted to a concentration of 0.5 mg/mL using physiological saline as a solvent at an amount of 10 mL/kg on Days 1, 4, 7, 8 and 9 after the start of drinking the DSS aqueous solution (peptide dose of 5 mg/kg). The control group was injected with physiological saline solution at a dose of 10 mL/kg into the tail vein on Days 1, 4, 7, 8 and 9 after the start of drinking the DSS aqueous solution.
For 10 days from the start of drinking the DSS aqueous solution, the mice were weighed and observed for the symptoms (stool condition and bleeding) every day except Saturdays, Sundays, and holidays, and the degree of symptoms was evaluated by calculating the DAI (disease activity index) score. The DAI score was calculated by scoring the weight loss rate, stool condition, and stool bleeding as shown in the table below, and summing the scores of these three items. The scoring criteria were partly based on the method of Li et al. (PLoS One. 2015 Dec. 7; 10 (12): e0144101).
In addition, the length of the large intestine (from the colon to the rectum) collected 10 days after the start of drinking DSS was measured using a digital caliper.

[3] = system: atopic dermatitis model mice; experiment: MC903-induced atopic dermatitis model mice; type: in vivo, C57BL/6 mice
From the text: MC903 (generic name: Calcipotriol) was used to induce atopic dermatitis (hereinafter, also referred to as “AD”) in mice. In addition, the peptide 1r10 (TFA salt) described in Reference Example 1 was used as the test substance.
C57BL/6 mice (C57BL/6 JJcl, 7-8 weeks old, male, microbial grade SPF) were obtained from Japan Claire Co., Ltd., acclimated in the animal breeding room for 5 days or more, and then subjected to the following experiments. An ethanol-adjusted MC903 solution was applied to the skin of the auricle of the mice at a dose of 2.25 nmol MC903/ear/once/day five times a week for 2 weeks (ten times in total) to induce atopic dermatitis (AD). This MC903-induced AD model is a model in which AD-like pathology can be reproduced in a short period of time (1-2 weeks) by artificially inducing the secretion of TSLP from epithelial cells, which is actually seen in AD patients, thereby eliciting a series of type 2 immune response cascades (Li M et al., Proc Natl Acad Sci USA. 2006; 103:11736-41.).
They were then divided into the control group and the peptide administration group (n=7 in each group), while the groups were equalized based on the auricle thickness in consideration of the difference in the severity of inflammation between individuals. For peptide administration, the solution of peptide 1r10 adjusted to 0.3 mg/mL with physiological saline was injected into the tail vein at a volume of 5 mL/kg ([…]) twice in total, once on the grouping day (Day 15) and once during the following 4 days (Day 16 to Day 19). For the control group a solution of bovine serum albumin (BSA) adjusted to 0.3 mg/mL with physiological saline was injected into the tail vein at a volume of 5 mL/kg (BSA dose of 1.5 mg/kg) twice in total, once on the grouping day (Day 15) and once during the following 4 days (Day 16 to Day 19).
During the peptide administration period (Day 15 to Day 19), ear swellings were measured daily to determine edema. Scaling, which is the main symptom of AD, was determined by photography (three times a week) using a digital camera (E-Ml II; Olympus) from a fixed base at a height of 13-14 cm from the auricle.
On the 4th day (Day 19) after the start of peptide administration, mice were placed under the influence of isoflurane anesthesia and euthanized with cervical spine dislocation. The skin at auricular inflammation site and its surroundings was quickly excised and collected while on ice to prevent protein denaturation of the sample. After removing excess hair and skin with tweezers, the collected auricular skin was immersed in 10% formalin and fixed at 4° C. overnight while shaking on ice using a shaker. After fixation, the skin was thoroughly washed with phosphate buffered saline (PBS) and trimmed, and then a paraffin block was made using an automatic embedding device (Excelsior ES; Thermo Scientific) with attention to the tissue polarity in the dorsoventral axis/left-right axis specific to the skin). Then, it was sliced (5 μm thick) with a rotary microtome (HM 325; Thermo Scientific), fixed on a slide glass, and subjected to various staining. As pathological analysis, skin thickness and infiltration of immune cells were evaluated by histochemical staining and fluorescent immunostaining, respectively.
To quantitatively evaluate the healing condition of the site of inflammation, hematoxylin-eosin (HE) staining of the paraffin thin sections (5 μm thick) of skin tissue generated as described above was performed to measure the dermal thickness. Specifically, three sections were prepared for each individual, and each section was photographed with a microscope (Keyence BZ-X710) at one site each of the center of inflammation, head side, and tail side (that is, a total of 9 sites were photographed per individual). […]

[4] = system: cerebral infarction model rat; experiment: Cerebral infarction model rat (right MCA occlusion), cerebral infarction volume ratio; type: in vivo, Crl:CD (SD) rats; conditions: 2 mg/kg tail vein at 105 minutes and 24 hours after right MCA occlusion; 48 hours after occlusion; control 34.1±1.1%; p<0.01
From the text: Crl:CD (SD) rats (7 weeks old, male) were obtained from Charles River Laboratories, Japan, and after 6 days of acclimation, they were divided into the control group (n=8) and the peptide-administered group (n=8). On the following day of grouping, the rats were fixed in the supine position under 2% isoflurane inhalation anesthesia (anesthesia background: laughing gas:oxygen=7:3). To regulate body temperature during surgery, a thermometer probe connected to a digital thermometer was inserted into the rectum, and changes in the rectal temperature before and after surgery were monitored. […]
Forty-eight hours after the right MCA occlusion, the animals were decapitated under anesthesia with sodium pentobarbital (50 mg/kg, intraperitoneal administration), and the entire brain was excised to prepare brain sections with a thickness of 2 mm. […] The resulting photographs were subjected to image analysis to obtain actual measurements of the cerebral infarction area and cross-sectional area of the brain, and the cerebral infarct volume and the total brain volume from 4 mm anterior to bregma to 6 mm posterior to bregma were calculated using the calculation formula below. In addition, the cerebral infarction volume ratio was calculated from the cerebral infarction volume and the total volume of the brain (cerebral infarction volume ratio (%)=cerebral infarction volume/total brain volume x 1001. […]

[5] = 5 mg/kg tail vein, 8 to 10 days after the start of drinking DSS, versus saline control

Substance	number of colonies obtained by solid-phase culture of peripheral blood, versus physiological saline [1]	body weight 10 days after the start of drinking the DSS aqueous solution ([2]; 5 mg/kg tail vein on Days 1, 4, 7, 8 and 9, Day 10)	changes in mouse body weight during the test period ([2]; 5 mg/kg tail vein on Days 1, 4, 7, 8 and 9 after start of drinking DSS, versus saline control)	DAI (disease activity index) score [2, 5]	stool score (sum of stool condition score and bleeding score) [2, 5]	colon length (length of the large intestine) ([2]; 5 mg/kg tail vein, ten days after the start of drinking DSS, versus saline control)	dermis thickness ([3]; 1.5 mg/kg tail vein twice, 4th day after start of administration (Day 19), HE staining, versus control)	scaling in the auricle ([3]; 1.5 mg/kg tail vein twice, 4 days after start of peptide administration, versus BSA control)	number of CD45-positive cells (infiltration of immune cells) in auricular skin sections ([3]; 1.5 mg/kg tail vein twice, Day 19, high power field 400×, versus control)	auricular thickness (edema) ([3]; 1.5 mg/kg tail vein twice, peptide administration period Day 15 to Day 19, versus BSA control)	changes in mouse body weight during the period of the study ([3]; Day 15 to Day 19, between peptide and control groups, p>0.05, repeated one-way ANOVA)	dermis thickness ([3]; dose of 0.5 mg/kg, versus control (data not shown))	cerebral infarction volume ratio (mean±standard error) [4] [%]
HMGB1 peptide 1-44: peptide consisting of amino acid residues 1-44 of the human HMGB1 protein (MGKGDPKKPRGKMSSYAFFVQTCREEHKKKHPDASVNFSEFSKK; UniProt P09429 1-44, looked up, fragment)	larger in the peripheral blood after administration of HMGB1 peptide 1-44 than in the peripheral blood after administration of physiological saline	–	–	–	–	–	–	–	–	–	–	–	–
1r10: artificial sequence peptide consisting of the amino acid sequence of SEQ ID NO: 1 (30 amino acids) (IMWLCQYFFQCHKCAVKKKTWKEKKDRRHP) [Peptide 1r10]	–	showed a tendency to recover body weight	the degree of decrease was slower in the peptide-administered group than in the control group	lower in the peptide-administered group than in the control group	lower in the peptide-administered group than in the control group	longer than that of the control group	statistically significant decrease in dermis thickness	reduction of scaling in the auricle was observed	statistically significant decrease in the number of CD45-positive cells	statistically significant reduction in auricular thickness	not significantly different between the groups	statistically significant decrease in dermis thickness	27.2±1.2
